Reference: ChEMBL document CHEMBL1201862, “PubChem BioAssay data set” (2004)
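Protocol summary: plate cells (96-well), add compound at 5 concentrations, incubate 48 h, interpolate endpoints linearly. GI50 is the concentration that inhibits growth by half.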 Activity calls are given as the source filed them. Cut-off read from the data, not from the text of the source: active = GI50 up to about 1.1 µM and inactive = higher.

Key:
Experiment in all cases: DTP human tumour cell line panel, 48 h
[1] = test system: SR
[2] = test system: HCT-15
[3] = test system: HL-60
[4] = test system: OVCAR-4
[5] = test system: MDA-MB-435
[6] = test system: U-251
[7] = test system: SK-MEL-28
[8] = test system: SN12C
[9] = test system: SK-OV-3
[10] = test system: K562
[11] = test system: HOP-92
[12] = test system: IGROV-1
[13] = test system: A498
[14] = test system: MOLT-4
[15] = test system: PC-3
[16] = test system: OVCAR-3
[17] = test system: COLO 205
[18] = test system: SF-539
[19] = test system: SF-295
[20] = test system: SW-620

Row | Compound | GI50 [1] | GI50 [2] | GI50 [3] | GI50 [4] | GI50 [5] | GI50 [6] | GI50 [7] | GI50 [8] | GI50 [9] | GI50 [10] | GI50 [11] | GI50 [12] | GI50 [13] | GI50 [14] | GI50 [15] | GI50 [16] | GI50 [17] | GI50 [18] | GI50 [19] | GI50 [20]
1 | Cc1nc(N)nc(S)c1CCC(=O)O | > 100 µM (inactive) | > 100 µM | > 100 µM (inactive) | > 100 µM (inactive) | > 100 µM (inactive) | > 100 µM (inactive) | > 100 µM (inactive) | > 100 µM (inactive) | > 100 µM (inactive) | > 100 µM (inactive) | > 100 µM (inactive) | > 100 µM (inactive) | > 100 µM (inactive) | > 100 µM (inactive) | > 100 µM (inactive) | > 100 µM (inactive) | > 100 µM (inactive) | > 100 µM (inactive) | > 100 µM (inactive) | > 100 µM (inactive)
2 | Cc1cc(Cl)ccc1OCC(=O)Nc1nc(N)nc(N)n1 | > 100 µM (inactive) | > 100 µM | > 100 µM (inactive) | > 100 µM (inactive) | > 100 µM (inactive) | > 100 µM (inactive) | > 100 µM (inactive) | > 100 µM (inactive) | > 100 µM (inactive) | > 100 µM (inactive) | > 100 µM (inactive) | > 100 µM (inactive) | > 100 µM (inactive) | > 100 µM (inactive) | > 100 µM (inactive) | > 100 µM (inactive) | > 100 µM (inactive) | > 100 µM (inactive) | > 100 µM (inactive) | > 100 µM (inactive)
3 | COc1cccc2c1C(=O)c1ccc3cc(CO)cc(O)c3c1C2=O | 0.267 µM (active) | 0.321 µM | 0.171 µM (active) | 0.652 µM (active) | 0.201 µM (active) | 1.45 µM (inactive) | 1.86 µM (inactive) | 0.748 µM (active) | 2.33 µM (inactive) | 1.41 µM (inactive) | 0.573 µM (active) | 1.38 µM (inactive) | 3.52 µM (inactive) | 0.405 µM (active) | 0.215 µM (active) | 0.169 µM (active) | 1.53 µM (inactive) | 0.329 µM (active) | 3.03 µM (inactive) | 0.19 µM (active)
4 | CN1CCN(CCn2c3c4ccccc4ccc3c3oc(=O)c4ccccc4c32)CC1 | 1.5 µM (inactive) | 2.72 µM | 2.15 µM (inactive) | 2.26 µM (inactive) | 1.88 µM (inactive) | 2.49 µM (inactive) | 4.94 µM (inactive) | 1.51 µM (inactive) | 12.7 µM (inactive) | 1.44 µM (inactive) | 5.85 µM (inactive) | 13.2 µM (inactive) | 5.09 µM (inactive) | 1.5 µM (inactive) | 2.03 µM (inactive) | 10.6 µM (inactive) | 1.8 µM (inactive) | 1.65 µM (inactive) | 4.21 µM (inactive) | 1.86 µM (inactive)
5 | CCCCCCCCCCCCc1ccsc1-c1ccc(-c2ccc(-c3sc(-c4cc(CCCCCCCCCCCC)c(-c5ccc(-c6ccc(-c7sccc7CCCCCCCCCCCC)s6)s5)s4)cc3CCCCCCCCCCCC)s2)s1 | 22.8 µM (inactive) | > 100 µM | 19.3 µM (inactive) | > 100 µM (inactive) | > 100 µM (inactive) | > 100 µM (inactive) | > 100 µM (inactive) | > 100 µM (inactive) | > 100 µM (inactive) | > 100 µM (inactive) | > 100 µM (inactive) | > 100 µM (inactive) | > 100 µM (inactive) | > 100 µM (inactive) | > 100 µM (inactive) | > 100 µM (inactive) | > 100 µM (inactive) | > 100 µM (inactive) | > 100 µM (inactive) | > 100 µM (inactive)
6 | O=P(O)(O)CN1CCNCCN(CP(=O)(O)O)CC1 | 9.44 µM (inactive) | 8.89 µM | 4.21 µM (inactive) | > 100 µM (inactive) | 36.5 µM (inactive) | > 100 µM (inactive) | > 100 µM (inactive) | > 100 µM (inactive) | 23.7 µM (inactive) | 6.32 µM (inactive) | > 34 µM (inactive) | 33.3 µM (inactive) | 33.7 µM (inactive) | 12.5 µM (inactive) | 52.4 µM (inactive) | > 62.7 µM (inactive) | 3.18 µM (inactive) | > 22.1 µM (inactive) | 41.5 µM (inactive) | 19.3 µM (inactive)
7 | c1ccc2c(c1)nc1n2C2CCC(C2)N1 (stereo not given) | > 10 µM (inactive) | > 10 µM | > 10 µM (inactive) | > 10 µM (inactive) | > 10 µM (inactive) | > 10 µM (inactive) | > 10 µM (inactive) | > 10 µM (inactive) | > 10 µM (inactive) | > 10 µM (inactive) | > 10 µM (inactive) | > 10 µM (inactive) | > 10 µM (inactive) | > 10 µM (inactive) | > 10 µM (inactive) | > 10 µM (inactive) | > 10 µM (inactive) | > 10 µM (inactive) | > 10 µM (inactive) | > 10 µM (inactive)
8 | c1ccc2c(c1)CCN1CCc3ccccc3C1C2 (stereo not given) | 47.8 µM (inactive) | 40.2 µM | 76.9 µM (inactive) | > 100 µM (inactive) | 33 µM (inactive) | 38.4 µM (inactive) | 59.6 µM (inactive) | 43.4 µM (inactive) | 64 µM (inactive) | 31.2 µM (inactive) | 31 µM (inactive) | 48 µM (inactive) | > 100 µM (inactive) | 40.4 µM (inactive) | 43.7 µM (inactive) | 99.1 µM (inactive) | 38 µM (inactive) | 20.5 µM (inactive) | 26.9 µM (inactive) | 64.6 µM (inactive)
9 | C=CCn1c(-c2ccc(-c3cs/c(=N\N=O)n3CC=C)cc2)cs/c1=N\N=O | > 100 µM (inactive) | > 100 µM | > 100 µM (inactive) | 22.2 µM (inactive) | > 100 µM (inactive) | 61.1 µM (inactive) | > 100 µM (inactive) | 86.9 µM (inactive) | 40.7 µM (inactive) | > 100 µM (inactive) | > 100 µM (inactive) | > 100 µM (inactive) | > 100 µM (inactive) | > 100 µM (inactive) | > 100 µM (inactive) | > 100 µM (inactive) | > 100 µM (inactive) | 94.4 µM (inactive) | 91 µM (inactive) | > 100 µM (inactive)
10 | COC(=O)C1=C(C(=O)OC)N(c2ccc(OC)cc2[N+](=O)[O-])C(c2ccc(C)cc2)=CC1c1ccc(OC)cc1OC (stereo not given) | 2.28 µM (inactive) | 4.65 µM | 3.8 µM (inactive) | 44 µM (inactive) | 5.13 µM (inactive) | 6.37 µM (inactive) | 64.3 µM (inactive) | 13.6 µM (inactive) | 25.8 µM (inactive) | 3.16 µM (inactive) | 47.2 µM (inactive) | 13.3 µM (inactive) | 16 µM (inactive) | 8.79 µM (inactive) | 47.6 µM (inactive) | 23.6 µM (inactive) | 13.2 µM (inactive) | 6.61 µM (inactive) | 29 µM (inactive) | 3.88 µM (inactive)
11 | CCSc1nnc(Sc2c3ccccc3nc3ccccc23)s1 | 3.19 µM (inactive) | 3.37 µM | 0.692 µM (active) | 16.9 µM (inactive) | 9.84 µM (inactive) | 23.3 µM (inactive) | 17.5 µM (inactive) | 15.2 µM (inactive) | > 78 µM (inactive) | 3.8 µM (inactive) | 11.7 µM (inactive) | 17.3 µM (inactive) | 23.8 µM (inactive) | 2.63 µM (inactive) | 20.3 µM (inactive) | 13.1 µM (inactive) | 2.78 µM (inactive) | 7.94 µM (inactive) | 99.3 µM (inactive) | 5.45 µM (inactive)
12 | COc1cc(OC)cc(C(=O)NC2=C(Cl)C(=O)c3ccccc3C2=O)c1 | 1.06 µM (active) | 0.94 µM | 0.189 µM (active) | 1.79 µM (inactive) | 1.95 µM (inactive) | 1.94 µM (inactive) | 2.96 µM (inactive) | 3.15 µM (inactive) | 2.49 µM (inactive) | 0.798 µM (active) | 1.45 µM (inactive) | 2.18 µM (inactive) | 14.1 µM (inactive) | 1.67 µM (inactive) | 1.23 µM (inactive) | 1.88 µM (inactive) | 2.52 µM (inactive) | 4.45 µM (inactive) | 2.92 µM (inactive) | 1.01 µM (active)
13 | CCOC(=O)c1c(C)[nH]c2c1c(CN(C)C)c(O)c1nc(C)c(C)nc12 | 16.5 µM (inactive) | 26.4 µM | 8.09 µM (inactive) | 27.2 µM (inactive) | 25.6 µM (inactive) | 24.3 µM (inactive) | 25 µM (inactive) | 12.6 µM (inactive) | 32.3 µM (inactive) | 21.3 µM (inactive) | 31.8 µM (inactive) | 24.2 µM (inactive) | 15.2 µM (inactive) | 16 µM (inactive) | 19.5 µM (inactive) | 26.5 µM (inactive) | 14.5 µM (inactive) | 18 µM (inactive) | 20.2 µM (inactive) | 24.4 µM (inactive)
14 | CC(=O)Nc1ccc2c3c(cc(O)c2c1)N(C(=O)CCCCCCC(=O)N1CC(CCl)c2c1cc(O)c1cc(NC(C)=O)ccc21)CC3CCl (stereo not given) | < 0.01 µM (active) | 0.231 µM | < 0.01 µM (active) | 0.0419 µM (active) | 0.0127 µM (active) | < 0.01 µM (active) | 0.0148 µM (active) | < 0.01 µM (active) | 0.017 µM (active) | < 0.0125 µM (active) | < 0.0117 µM (active) | 0.015 µM (active) | < 0.01 µM (active) | < 0.01 µM (active) | < 0.0119 µM (active) | < 0.01 µM (active) | 0.0105 µM (active) | < 0.01 µM (active) | < 0.01 µM (active) | 0.0151 µM (active)
